Earlier results in patent EP2156182B1, “DETECTION OF AN ANALYTE IN A SAMPLE OF HEMOLYZED WHOLE BLOOD” (Roche Diagnostics GmbH, priority 2007, dated 2008).

Columns and labels:
[1] = relative to cyclosporin
[2] = therapeutic range, whole blood drug monitoring

| SMILES | times more potent than cyclosporin in vitro [1] | therapeutic trough concentration [2] [µg/L] |
| --- | --- | --- |
| C=CC[C@@H]1/C=C(\C)C[C@H](C)C[C@H](OC)[C@H]2O[C@@](O)(C(=O)C(=O)N3CCCC[C@H]3C(=O)O[C@H](/C(C)=C/[C@@H]3CC[C@@H](O)[C@H](OC)C3)[C@H](C)[C@@H](O)CC1=O)[C@H](C)C[C@@H]2OC [Tacrolimus, tacrolimus] | up to 100 times | 5 to 20 |
| CO[C@H]1C[C@@H]2CC[C@@H](C)[C@@](O)(O2)C(=O)C(=O)N2CCCC[C@H]2C(=O)O[C@H]([C@H](C)C[C@@H]2CC[C@@H](O)[C@H](OC)C2)CC(=O)[C@H](C)/C=C(\C)[C@@H](O)[C@@H](OC)C(=O)[C@H](C)C[C@H](C)/C=C/C=C/C=C/1C [sirolimus] | – | 5 to 15 |
